Values joined by “and” are separate entries in the source; they are usually repeats but may differ in a detail not shown here. Equal values may be shown once. Toxic doses and inconclusive results are not listed.
Test system: P388 leukemia ip, CD2F1 mice, survival T/C
Test: NCI In Vivo Anticancer Drug Screen. Data for tumor model P388 Leukemia (intraperitoneal) in CD2F1 (CDF1) mice
Conditions: endpoint: median survival time, higher = longer survival
Summary of the method: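 Mice carrying the transplanted tumor received test compound or vehicle. Survival was recorded in each group, and the value is the treated-group measurement divided by that of the vehicle-treated control group.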

[1] = dose: 50.0 mg/kg/injection, schedule: Q01DX009 (ip), vehicle: Klucel (hydroxypropylcellulose) (HPC)
[2] = dose: 100.0 mg/kg/injection, schedule: Q01DX009 (ip), vehicle: Klucel (hydroxypropylcellulose) (HPC)
[3] = dose: 200.0 mg/kg/injection, schedule: Q01DX009 (ip), vehicle: Klucel (hydroxypropylcellulose) (HPC)
[4] = dose: 50.0 mg/kg/injection, schedule: Q01DX005 (ip), vehicle: Klucel (hydroxypropylcellulose) (HPC)
[5] = dose: 100.0 mg/kg/injection, schedule: Q01DX005 (ip), vehicle: Klucel (hydroxypropylcellulose) (HPC)
[6] = dose: 50.0 mg/kg/injection, schedule: Q01DX005 (ip), vehicle: saline with Tween-80
[7] = dose: 100.0 mg/kg/injection, schedule: Q01DX005 (ip), vehicle: saline with Tween-80
[8] = dose: 200.0 mg/kg/injection, schedule: Q01DX005 (ip), vehicle: saline with Tween-80
[9] = dose: 60.0 mg/kg/injection, schedule: Q01DX005 (ip), vehicle: saline with Tween-80
[10] = dose: 120.0 mg/kg/injection, schedule: Q01DX005 (ip), vehicle: saline with Tween-80
[11] = dose: 240.0 mg/kg/injection, schedule: Q01DX005 (ip), vehicle: saline with Tween-80
[12] = dose: 60.0 mg/kg/injection, schedule: Q01DX005 (ip), vehicle: Klucel (hydroxypropylcellulose) (HPC)
[13] = dose: 120.0 mg/kg/injection, schedule: Q01DX005 (ip), vehicle: Klucel (hydroxypropylcellulose) (HPC)
[14] = dose: 240.0 mg/kg/injection, schedule: Q01DX005 (ip), vehicle: Klucel (hydroxypropylcellulose) (HPC)
[15] = dose: 100.0 mg/kg/injection, schedule: Q01DX009 (ip), vehicle: saline
[16] = dose: 50.0 mg/kg/injection, schedule: Q01DX009 (ip), vehicle: saline with Tween-80
[17] = dose: 100.0 mg/kg/injection, schedule: Q01DX009 (ip), vehicle: saline with Tween-80
[18] = dose: 200.0 mg/kg/injection, schedule: Q01DX009 (ip), vehicle: saline with Tween-80
[19] = dose: 25.0 mg/kg/injection, schedule: Q01DX009 (ip), vehicle: saline with Tween-80

## Cc1ccc2nc(N/N=C/c3cccs3)sc2c1
[1]
  T/C: 100 % of control
[2]
  T/C: 101 % of control
[3]
  T/C: 94 % of control

## O=C1CN(CO)C(=O)N1CO
dose: 25.0 mg/kg/injection, schedule: Q01DX005 (ip), vehicle: Klucel (hydroxypropylcellulose) (HPC)
  T/C: 114 % of control
[4]
  T/C: 116 % of control and 117 % of control
[5]
  T/C: 116 % of control

## O=C(S)c1ccc(Cl)c(Cl)c1
[6]
  T/C: 90 % of control
[7]
  T/C: 87 % of control
[8]
  T/C: 92 % of control

## NC(CCC(=O)NCC(=O)O)C(=O)O (configuration not stated)
dose: 50.0 mg/kg/injection, schedule: Q01DX005 (ip), vehicle: saline
  T/C: 94 % of control
dose: 100.0 mg/kg/injection, schedule: Q01DX005 (ip), vehicle: saline
  T/C: 104 % of control
dose: 200.0 mg/kg/injection, schedule: Q01DX005 (ip), vehicle: saline
  T/C: 102 % of control

## COc1ccc(CSC(=S)Nc2ccc(F)c(C)c2)cc1
dose: 50.0 mg/kg/injection, schedule: Q01DX009 (ip), vehicle: suspension in saline
  T/C: 99 % of control
dose: 100.0 mg/kg/injection, schedule: Q01DX009 (ip), vehicle: suspension in saline
  T/C: 99 % of control

## Cc1ccc(O)c(C(c2ccc3c(c2)OCO3)N2CCOCC2)c1 (configuration not stated)
[9]
  T/C: 101 % of control
[10]
  T/C: 100 % of control
[11]
  T/C: 97 % of control

## Cc1cc(C)c2c(c1)CC(C)(C)C(=O)OC2=O
[9]
  T/C: 107 % of control
[10]
  T/C: 101 % of control

## CCOC(=O)c1ccc(NC(=O)Nc2ccc(OC)cc2Cl)cc1
[12]
  T/C: 91 % of control
[13]
  T/C: 93 % of control
[14]
  T/C: 96 % of control

## NC(=NCCCC(NCc1ccccc1)C(=O)O)N[N+](=O)[O-] (configuration not stated)
dose: 12.5 mg/kg/injection, schedule: Q01DX009 (ip), vehicle: Klucel (hydroxypropylcellulose) (HPC)
  T/C: 98 % of control
dose: 25.0 mg/kg/injection, schedule: Q01DX009 (ip), vehicle: Klucel (hydroxypropylcellulose) (HPC)
  T/C: 99 % of control
[1]
  T/C: 99 % of control and 100 % of control
[2]
  T/C: 99 % of control and 100 % of control
[3]
  T/C: 100 % of control and 96 % of control
dose: 400.0 mg/kg/injection, schedule: Q01DX009 (ip), vehicle: Klucel (hydroxypropylcellulose) (HPC)
  T/C: 94 % of control

## C[S+](C)C
[15]
  T/C: 110 % of control
dose: 200.0 mg/kg/injection, schedule: Q01DX009 (ip), vehicle: saline
  T/C: 110 % of control
dose: 400.0 mg/kg/injection, schedule: Q01DX009 (ip), vehicle: saline
  T/C: 110 % of control

## CCOC(=O)/C(=N\N=P(N(C)C)(N(C)C)N(C)C)[As](C)C
dose: 50.0 mg/kg/injection, schedule: Q01DX009 (ip), vehicle: saline
  T/C: 103 % of control
[15]
  T/C: 99 % of control

## O=C1CCC(=O)Nc2ccc3nc4ccccc4c(c3c2)SCCCCCCCCCCCCSc2c3ccccc3nc3ccc(cc23)N1
[6]
  T/C: 110 % of control
[7]
  T/C: 97 % of control
[8]
  T/C: 107 % of control

## Cc1c(C)c2c(N)c3ccccc3nc2c2ccccc12
dose: 12.5 mg/kg/injection, schedule: Q01DX001 (ip), vehicle: saline with Tween-80
  T/C: 101 % of control
dose: 25.0 mg/kg/injection, schedule: Q01DX001 (ip), vehicle: saline with Tween-80
  T/C: 100 % of control
dose: 50.0 mg/kg/injection, schedule: Q01DX001 (ip), vehicle: saline with Tween-80
  T/C: 115 % of control
dose: 100.0 mg/kg/injection, schedule: Q01DX001 (ip), vehicle: saline with Tween-80
  T/C: 111 % of control

## CC(C)/[N+]([O-])=N\O
dose: 3.0 mg/kg/injection, schedule: Q01DX005 (ip), vehicle: Klucel (hydroxypropylcellulose) (HPC)
  T/C: 101 % of control
dose: 6.0 mg/kg/injection, schedule: Q01DX005 (ip), vehicle: Klucel (hydroxypropylcellulose) (HPC)
  T/C: 98 % of control
dose: 12.0 mg/kg/injection, schedule: Q01DX005 (ip), vehicle: Klucel (hydroxypropylcellulose) (HPC)
  T/C: 100 % of control
dose: 24.0 mg/kg/injection, schedule: Q01DX005 (ip), vehicle: Klucel (hydroxypropylcellulose) (HPC)
  T/C: 98 % of control

## C[CH2][Ge]([Cl])([Cl])[CH2]C
[4]
  T/C: 91 % of control
[5]
  T/C: 87 % of control

## CCCCC(O)(CCCC)/C(C)=N/O
[16]
  T/C: 94 % of control
[17]
  T/C: 91 % of control
[18]
  T/C: 87 % of control

## O=C(/C=C/c1ccco1)c1ccc(O)c(C(=O)O)c1
[19]
  T/C: 99 % of control
[16]
  T/C: 105 % of control
[17]
  T/C: 102 % of control

## CCOC(=O)c1c(C)csc1NC(C)=O
[17]
  T/C: 120 % of control
[18]
  T/C: 115 % of control
dose: 400.0 mg/kg/injection, schedule: Q01DX009 (ip), vehicle: saline with Tween-80
  T/C: 115 % of control

## CCCC1(CC)CNC(=O)NC1=O (configuration not stated)
[6]
  T/C: 100 % of control
[7]
  T/C: 93 % of control
[8]
  T/C: 99 % of control

## O=c1c2ccccc2c2nccn2c2ccccc12
[9]
  T/C: 90 % of control
[10]
  T/C: 90 % of control
[11]
  T/C: 96 % of control

## Nc1cc2ccccc2cc1NS(=O)(=O)N1CCCCC1
dose: 50.0 mg/kg/injection, schedule: Q01DX009 (ip), vehicle: acetone
  T/C: 94 % of control
dose: 100.0 mg/kg/injection, schedule: Q01DX009 (ip), vehicle: acetone
  T/C: 101 % of control
dose: 200.0 mg/kg/injection, schedule: Q01DX009 (ip), vehicle: acetone
  T/C: 98 % of control

## Cc1csc2nc(-c3cccs3)nn12
dose: 30.0 mg/kg/injection, schedule: Q01DX005 (ip), vehicle: Klucel (hydroxypropylcellulose) (HPC)
  T/C: 103 % of control
[12]
  T/C: 98 % of control
[13]
  T/C: 103 % of control
[14]
  T/C: 105 % of control

## COc1ncnc2c1nnn2C1OC(CO)C(O)C1O (configuration not stated)
dose: 25.0 mg/kg/injection, schedule: Q04DX003 (ip), vehicle: saline
  T/C: 96 % of control
dose: 50.0 mg/kg/injection, schedule: Q04DX003 (ip), vehicle: saline
  T/C: 105 % of control
dose: 100.0 mg/kg/injection, schedule: Q04DX003 (ip), vehicle: saline
  T/C: 100 % of control
dose: 200.0 mg/kg/injection, schedule: Q04DX003 (ip), vehicle: saline
  T/C: 109 % of control

## CCC1(O)CC2CN(CCc3c([nH]c4ccccc34)C(C(=O)OC)(c3cc4c(cc3OC)N(C)C3C(O)(C(=O)NCCO)C(O)C5(CC)C=CCN6CCC43C65)C2)C1 (configuration not stated)
dose: 0.13 mg/kg/injection, schedule: Q01DX009 (ip), vehicle: water
  T/C: 105 % of control
dose: 0.2 mg/kg/injection, schedule: Q01DX009 (ip), vehicle: saline
  T/C: 150 % of control
dose: 0.22 mg/kg/injection, schedule: Q01DX009 (ip), vehicle: water
  T/C: 117 % of control
dose: 0.36 mg/kg/injection, schedule: Q01DX009 (ip), vehicle: water
  T/C: 122 % of control
dose: 0.4 mg/kg/injection, schedule: Q01DX009 (ip), vehicle: saline
  T/C: 167 % of control
dose: 0.6 mg/kg/injection, schedule: Q01DX009 (ip), vehicle: water
  T/C: 153 % of control
dose: 0.63 mg/kg/injection, schedule: Q04DX003 (ip), vehicle: saline
  T/C: 183 % of control
dose: 0.8 mg/kg/injection, schedule: Q01DX009 (ip), vehicle: saline
  T/C: 96 % of control
dose: 1.0 mg/kg/injection, schedule: Q01DX009 (ip), vehicle: water
  T/C: 104 % of control
dose: 1.25 mg/kg/injection, schedule: Q04DX003 (ip), vehicle: saline
  T/C: 223 % of control
dose: 2.5 mg/kg/injection, schedule: Q04DX003 (ip), vehicle: saline
  T/C: 274 % of control

## CCc1cccc(C)c1NC(=O)/C(Cl)=C(\Cl)C(=O)O
[9]
  T/C: 104 % of control
[10]
  T/C: 106 % of control

## COc1ccc(/C=C/c2ccc3ccccc3[n+]2C)cc1
dose: 11.0 mg/kg/injection, schedule: Q01DX009 (ip), vehicle: saline with Tween-80
  T/C: 122 % of control
dose: 12.5 mg/kg/injection, schedule: Q01DX009 (ip), vehicle: saline with Tween-80
  T/C: 124 % of control
[19]
  T/C: 122 % of control

## CC(N=c1cc2n(-c3ccc(Cl)cc3)c3ccccc3nc-2cc1Nc1ccc(Cl)cc1)c1ccccc1 (configuration not stated)
dose: 1.87 mg/kg/injection, schedule: Q01DX005 (ip), vehicle: saline with Tween-80
  T/C: 98 % of control
dose: 3.75 mg/kg/injection, schedule: Q01DX005 (ip), vehicle: saline with Tween-80
  T/C: 101 % of control
dose: 7.5 mg/kg/injection, schedule: Q01DX005 (ip), vehicle: saline with Tween-80
  T/C: 104 % of control and 86 % of control
[11]
  T/C: 88 % of control

— PubChem BioAssay AID330 (DTP/NCI, 2004)
